Entries after “also recorded” stand apart in the source; their conditions may differ.
Legend:
UM-C4 colon tumor cells = test: UM-C4 xenograft, combination with fluorouracil; format: in vivo, NOD/SCID mice; conditions: day 46
Procedure: In certain embodiments, anti-DLL4 antibodies were analyzed in combination with chemotherapy for the ability to reduce growth of UM-C4 colon tumor cells in vivo. Dissociated UM-C4 cells (10,000 per animal) were injected subcutaneously into the right flank region of 6-8 week old NOD/SCID mice. The day after tumor cell injection, animals were injected intraperitoneal (i.p.) with 10 mg/kg murine 21M18 anti-DLL4 antibodies or PBS two times per week for the duration of the experiment with or without concurrent treatment with the anti-metabolite chemotherapy agent fluorouracil (5-FU) administered one time per week. Tumor growth was monitored weekly until growth was detected, after which point tumor growth was measured twice weekly for a total of 8 weeks.

human DLL4 = human DLL4 (Homo sapiens, UniProt Q9NR61); test: OMP-C11 tumor cell colonies overlaid with 3T3-DLL4 cells, HES1:ATOH1 expression; format: cell-based; set-up: expressed in transfected cells; host or cells: 3T3 cells; conditions: 5 μM
Procedure: In some embodiments, mouse lineage-depleted OMP-C11 tumor cell colonies were established using culture conditions known to maintain tumorigenic cells in vitro. These tumor cell colonies were overlaid with 3T3 cells without (3T3) or including human DLL4 (DLL4) overexpressed on the cell surface in the presence or absence of 10 μg/mL murine 21M18 or 5 μM gamma-secretase inhibitor (GSI; i.e. DBZ). A no overlay control was also included.

OMP-C8 tumor cells = test: OMP-C8 colon tumor xenograft growth prevention, combination with Irinotecan; format: in vivo, NOD/SCID mice; conditions: 21M18 10 mg/kg twice per week; Irinotecan 7.5 mg/kg weekly; n=10 per group
Procedure: In certain embodiments, anti-DLL4 antibodies were tested in combination with the chemotherapeutic Irinotecan. In some embodiments, dissociated OMP-C8 tumor cells (10,000 per animal) were injected subcutaneously into the right flank region of 6-8 week old NOD/SCID mice. The day after tumor cell injection, animals were injected intraperitoneal (i.p.) with 10 mg/kg murine 21M18 anti-DLL4 antibodies or control antibody two times per week for the duration of the experiment with or without concurrent treatment with the chemotherapy agent Irinotecan administered one time per week at a dosage of 7.5 mg/kg. Tumor growth was monitored weekly until growth was detected, after which point tumor growth was measured twice weekly. […] In certain embodiments, humanized H7L2 21M18 anti-DLL4 antibodies were tested in combination with Irinotecan. In some embodiments, dissociated C8 tumor cells (10,000 per animal) were injected subcutaneously into the right flank region of 6-8 week old NOD/SCID mice. […] Tumor growth was monitored weekly until growth was detected, after which point tumor growth was measured twice weekly.

C8 cells = test: Established C8 colon tumors, combination with Irinotecan; format: in vivo, NOD/SCID mice; conditions: treatment from approximately 60 mm^3; 21M18 10 mg/kg two times per week; Irinotecan 7.5 mg/kg one time per week
Procedure: In some embodiments, combination anti-DLL4 murine 21M18 and Irinotecan treatment was used to treat established colon tumors. Dissociated C8 cells (10,000 per animal) were injected subcutaneously into the right flank region of 6-8 week old NOD/SCID mice. When the injected cells produced tumors of approximately 60 mm^3, treatment was commenced. Animals were injected intraperitoneal (i.p.) with 10 mg/kg murine 21M18 anti-DLL4 antibodies or a control two times per week for the duration of the experiment with or without concurrent treatment with the chemotherapy agent Irinotecan administered one time per week at a dosage of 7.5 mg/kg.

human DLL4, sequence (Q9NR61 27-685): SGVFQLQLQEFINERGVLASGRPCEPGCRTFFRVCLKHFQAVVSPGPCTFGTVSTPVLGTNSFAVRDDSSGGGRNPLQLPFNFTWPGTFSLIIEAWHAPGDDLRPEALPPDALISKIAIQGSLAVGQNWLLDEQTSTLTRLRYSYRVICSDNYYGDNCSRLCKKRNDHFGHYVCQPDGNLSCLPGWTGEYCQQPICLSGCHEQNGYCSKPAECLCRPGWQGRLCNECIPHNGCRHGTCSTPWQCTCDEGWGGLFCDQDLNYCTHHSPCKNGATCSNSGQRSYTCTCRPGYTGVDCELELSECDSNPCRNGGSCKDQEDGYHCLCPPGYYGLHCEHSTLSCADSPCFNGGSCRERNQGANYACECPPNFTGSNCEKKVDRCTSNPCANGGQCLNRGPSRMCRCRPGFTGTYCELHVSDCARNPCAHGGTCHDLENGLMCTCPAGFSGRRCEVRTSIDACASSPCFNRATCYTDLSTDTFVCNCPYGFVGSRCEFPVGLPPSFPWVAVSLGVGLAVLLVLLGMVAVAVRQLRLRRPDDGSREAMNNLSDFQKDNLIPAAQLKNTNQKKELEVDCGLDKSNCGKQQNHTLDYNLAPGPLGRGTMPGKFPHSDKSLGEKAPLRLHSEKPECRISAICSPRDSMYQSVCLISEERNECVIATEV

In the case of `O=c1[nH]cc(F)c(=O)[nH]1` [5-FU, fluorouracil, reference compound], the “tumor size compared to control” value (UM-C4 colon tumor cells) is reported as “reduced tumor size”.
`C[C@H](NC(=O)Cc1cc(F)cc(F)c1)C(=O)N[C@@H]1C(=O)N(C)c2ccccc2-c2ccccc21` [GSI, reference compound] was tested, and the “DLL4-induced Notch target gene changes (ratio of HES1:ATOH1)” value (human DLL4) was “inhibited DLL4-induced Notch target gene changes”.
With `CCc1c2c(nc3ccc(OC(=O)N4CCC(N5CCCCC5)CC4)cc13)-c1cc3c(c(=O)n1C2)COC(=O)[C@]3(O)CC` [Irinotecan] the “tumor growth after treatment cessation on day 56” value (OMP-C8 tumor cells) was “tumor growth continued or accelerated in most animals; also recorded: growth continued after cessation of treatment on day 56 (* arrow) in all but two treated animals” and the “growth of established colon tumors” value (C8 cells) was “reduced tumor volume”.

Source: US9228020B2, “Compositions and methods for diagnosing and treating cancer” (OncoMed Pharmaceuticals, Inc., priority 2006, dated 2016)
